Assay results published in patent US20120322890A1, “Inhibition of the Survival of Bone Cancer by Cyclohexenone Compounds from Antrodia Camphorata” (Golden Biotechnology Corporation, priority 2009, published 2012).

Tested on: bone cancer cell line MG-63
Assay: In vitro survival assay (MTT) for inhibition of bone cancer cells
Assay type: cell-based
Details: Homo sapiens, MG-63 cells, 48 hours treatment, absorbance at 570 nm, read-out: IC50 (half inhibition concentration), survival of bone cancer cells
Procedure: Inhibiting effects of bone cancer cells by cyclohexenone compounds of Antrodia camphorata from example 1 were assessed according to the anticancer-drug screening model of National Cancer Institute (NCI). The compound 4-hydroxy-2,3-dimethoxy-6-methyl-5-(3,7,11-trimethyl-dodeca-2,6,10-trienyl)-cyclohex-2-enone from example 1 was added into the culture media of bone cancer cell line MG-63 to determine the survival rates. Survival of cell was analyzed using MTT assay. MG-63 cell line was an osteoblast-like fibroblast cell line and derived from human osteosarcoma, which had similar cell type and feature with osteoblast.
MTT assay is commonly used to analyze cell proliferation, survival rate of viable cells and cytotoxicity. MTT (3[4,5-dimethylthiazol-2-yl]-2,5-diphenyltetrazolium bromide) is a yellow dye which can be converted to water-insoluble purple formazan on the reductive cleavage of its tetrazolium ring by the succinate tetrazolium reductase in mitochondria of cells. The amount of formazan produced is used to detect the number of viable cells and calculate the survival rates.
The MG-63 cells were cultivated in Dulbecco's modified Eagle's medium (DMEM) supplemented with 10% fetal bovine serum, 100 IU/ml of Penicillin and […] of Streptomycin at 37° C., 5% CO2 for 24 hours. […] The absorbances were measured at 570 nm with an ELISA Reader to determine the survival rates.

COC1=C(OC)C(O)C(C/C=C(\C)CC/C=C(\C)CCC=C(C)C)C(C)C1=O (stereo not shown) [formula 2, 4-hydroxy-2,3-dimethoxy-6-methyl-5-(3,7,11-trimethyl-dodeca-2,6,10-trienyl)-cyclohex-2-enone]
IC50: 2.09 µg/mL
